PubChem BioAssay (NCI)
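1) Cells in 96-well plates. 2) Compound, 48 h, 5 concentrations. 3) Linear interpolation between surrounding doses. 4) Unreached endpoint = highest concentration. GI50: concentration for 50% inhibition of growth. The concentration for full growth arrest is given as TGI.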

Tests used:
Experiment in all cases: inhibition of tumour cell growth, NCI panel, 48 h
[1] = test system: BT-549 breast
[2] = test system: TK-10 renal
[3] = test system: ACHN renal
[4] = test system: PC-3 prostate
[5] = test system: OVCAR-5 ovarian
[6] = test system: SF-268 CNS
[7] = test system: HL-60(TB) leukemia
[8] = test system: UACC-257 melanoma
[9] = test system: OVCAR-3 ovarian
[10] = test system: U251 CNS
[11] = test system: RXF 393 renal
[12] = test system: HS 578T breast
[13] = test system: SF-539 CNS
[14] = test system: SNB-19 CNS
[15] = test system: MOLT-4 leukemia
[16] = test system: SF-295 CNS
[17] = test system: NCI/ADR-RES ovarian
[18] = test system: SN12C renal
[19] = test system: MDA-MB-231 breast
[20] = test system: OVCAR-8 ovarian
[21] = test system: NCI-H23 lung
[22] = test system: RPMI-8226 leukemia
[23] = test system: SW-620 colon
[24] = test system: HCT-15 colon
[25] = test system: KM12 colon
[26] = test system: EKVX NSCLC
[27] = test system: UO-31 renal
[28] = test system: CCRF-CEM leukemia
[29] = test system: SK-MEL-2 melanoma
[30] = test system: MALME-3M melanoma
[31] = test system: SK-OV-3 ovarian
[32] = test system: MDA-MB-435
[33] = test system: LOX IMVI melanoma
[34] = test system: 786-0 renal
[35] = test system: HT29 colon
[36] = test system: SK-MEL-5 melanoma
[37] = test system: SK-MEL-28 melanoma
[38] = test system: HOP-92 NSCLC
[39] = test system: K-562 leukemia
[40] = test system: SNB-75 CNS
[41] = test system: NCI-H460 lung
[42] = test system: M14 melanoma
[43] = test system: A549 NSCLC
[44] = test system: MCF7 breast
[45] = test system: HOP-62 NSCLC
[46] = test system: DU-145 prostate
[47] = test system: COLO 205 colon
[48] = test system: NCI-H522 lung
[49] = test system: OVCAR-4 ovarian
[50] = test system: CAKI-1 renal
[51] = test system: NCI-H226 lung
[52] = test system: HCT-116 colon
[53] = test system: A498 renal
[54] = test system: SR leukemia
[55] = test system: T-47D breast
[56] = test system: UACC-62 melanoma
[57] = test system: HCC-2998 colon
[58] = test system: IGROV1 ovarian

CCc1c(C#N)c(SC(C(N)=O)c2ccccc2)nc(N2CCC(N)CC2)c1C#N (stereo unspecified)
GI50 [1]: 13.6 µM
TGI [1]: 27.3 µM
GI50 [2]: 15.3 µM
TGI [2]: 29.9 µM
GI50 [3]: 18.1 µM
TGI [3]: 38.8 µM
GI50 [4]: 12.9 µM
TGI [4]: 26.5 µM
GI50 [5]: 15.5 µM
TGI [5]: 31.7 µM
GI50 [6]: 14.2 µM
TGI [6]: 29.2 µM
GI50 [7]: 10.2 µM
TGI [7]: 25.9 µM
GI50 [8]: 14.3 µM
TGI [8]: 29.3 µM
GI50 [9]: 14.5 µM
TGI [9]: 28.2 µM
GI50 [10]: 15.7 µM
TGI [10]: 30.5 µM
GI50 [11]: 10.4 µM
TGI [11]: 22.7 µM
GI50 [12]: 14.1 µM
TGI [12]: 41.1 µM
GI50 [13]: 15.3 µM
TGI [13]: 28.9 µM
GI50 [14]: 14.9 µM
TGI [14]: 28.5 µM
GI50 [15]: 11.5 µM
TGI [15]: 31.2 µM
GI50 [16]: 14.8 µM
TGI [16]: 28.7 µM
GI50 [17]: > 100 µM
TGI [17]: > 100 µM
GI50 [18]: 13.1 µM
TGI [18]: 26 µM
GI50 [19]: 14.7 µM
TGI [19]: 28 µM
GI50 [20]: 15.9 µM
TGI [20]: 33.7 µM
GI50 [21]: 16.4 µM
TGI [21]: 31 µM
GI50 [22]: 13.7 µM
TGI [22]: 34.4 µM
GI50 [23]: 15.5 µM
TGI [23]: 29.6 µM
GI50 [24]: 53.5 µM
TGI [24]: > 100 µM
GI50 [25]: 15.9 µM
TGI [25]: 31.4 µM
GI50 [26]: 15.5 µM
TGI [26]: 36.9 µM
GI50 [27]: > 100 µM
TGI [27]: > 100 µM
GI50 [28]: 15.2 µM
TGI [28]: 36.8 µM
GI50 [29]: 14.7 µM
TGI [29]: 28.5 µM
GI50 [30]: 14.6 µM
TGI [30]: 28.1 µM
GI50 [31]: 15.7 µM
TGI [31]: 29.8 µM
GI50 [32]: 15.4 µM
TGI [32]: 29.6 µM
GI50 [33]: 14.3 µM
TGI [33]: 27.4 µM
GI50 [34]: 14.8 µM
TGI [34]: 28.3 µM
GI50 [35]: 14.3 µM
TGI [35]: 30.7 µM
GI50 [36]: 15.1 µM
TGI [36]: 28.3 µM
GI50 [37]: 14.7 µM
TGI [37]: 27.9 µM
GI50 [38]: 4.56 µM
TGI [38]: 19.2 µM
GI50 [39]: 12.4 µM
TGI [39]: 28.6 µM
GI50 [40]: 11.2 µM
TGI [40]: 24.6 µM
GI50 [41]: 16.1 µM
TGI [41]: 30.7 µM
GI50 [42]: 16.2 µM
TGI [42]: 30.6 µM
GI50 [43]: 18.4 µM
TGI [43]: 44.2 µM
GI50 [44]: 13 µM
TGI [44]: 26.8 µM
GI50 [45]: 15.9 µM
TGI [45]: 30.6 µM
GI50 [46]: 16.9 µM
TGI [46]: 31.1 µM
GI50 [47]: 14.2 µM
TGI [47]: 27.8 µM
GI50 [48]: 12.9 µM
TGI [48]: 27.1 µM
GI50 [49]: 15.5 µM
TGI [49]: 34.3 µM
GI50 [50]: 14.7 µM
TGI [50]: 28.6 µM
GI50 [51]: 13 µM
TGI [51]: 27.7 µM
GI50 [52]: 13.5 µM
TGI [52]: 27.4 µM
GI50 [53]: 15.4 µM
TGI [53]: 30.4 µM
GI50 [54]: 16.2 µM
TGI [54]: 38.1 µM
GI50 [55]: 14.6 µM
TGI [55]: 31.8 µM
GI50 [56]: 15 µM
TGI [56]: 28.4 µM
GI50 [57]: 14.1 µM
TGI [57]: 27.1 µM
GI50 [58]: 14 µM
TGI [58]: 27.9 µM
